Legend:
Smn protein [1] = experiment: Smn protein assay in tissues of adult C/C-allele SMA mice (HTRF); assay type: in vivo, mouse; settings: 50 mg/kg BID for 10 days, relative to vehicle group, p<0.001 by ANOVA, n=10 (FIG. 8)
Protocol: (§1) The Smn HTRF protein assay is used to quantify the level of Smn protein in mouse tissues.
(§2) The tissue samples in Safe-Lock tubes are weighed and the volume of RIPA buffer containing the protease inhibitor cocktail is added based on the weight to volume ratios for each type of tissue: Brain (50 mg/mL), Muscle (50 mg/mL) and Spinal Cord (25 mg/mL).
(§3) Tissues are homogenized using the TissueLyzer by bead milling. 5 mm stainless steel beads are added to the sample and shaken vigorously for 5 minutes at 30 Hz in the TissueLyzer. The samples are then centrifuged for 20 minutes at 14,000×g in a microcentrifuge and the homogenates transferred to the PCR plate. The homogenates are diluted in RIPA buffer to approximately 1 mg/mL for HTRF and approximately 0.5 mg/mL for total protein measurement using the BCA protein assay. For the SMN HTRF assay, 35 μL of the tissue homogenate is transferred to a 384-well plate containing 5 μL of the antibody solution (1:100 dilution of each of the anti-SMNd2 and anti-SMN Kryptate in reconstitution buffer). […] Fluorescence for each well of the plate at 665 nm and 620 nm is measured on an EnVision multilabel plate reader (Perkin-Elmer). The total protein in the tissue homogenate is measured using the BCA assay according to the manufacturer's protocol.
(§4) The normalized fluorescence signal is calculated for each sample, Blank and vehicle control well by dividing the signal at 665 nm by the signal at 620 nm. Normalizing the signal accounts for possible fluorescence quenching due to the matrix effect of the tissue homogenate. The ΔF value (a measurement of Smn protein abundance as a percent value) for each tissue sample well is calculated by subtracting the normalized average fluorescence for the Blank control wells from the normalized fluorescence for each tissue sample well, then dividing this difference by the normalized average fluorescence for the Blank control wells and multiplying the resulting value by 100. The ΔF value for each tissue sample well is divided by the total protein quantity (determined using the BCA assay) for that tissue sample. […]

Smn protein [2] = experiment: Smn protein in tissues of neonatal Δ7 SMA mice (HTRF); assay type: in vivo, mouse; settings: neonatal SMA Δ7 homozygous knockout mice
Protocol: as §1, §2, §3, §4

Row | Compound | total protein-normalized Smn level, brain (Smn protein [1]) | total protein-normalized Smn level, muscle (Smn protein [1]) | total protein-normalized Smn level, spinal cord (Smn protein [1]) | total protein normalized Smn level, brain (Smn protein [2]; QD IP for 7 days (PND 3 to PND 9) (FIG. 9a)) | total protein normalized Smn level, spinal cord (Smn protein [2]; QD IP for 7 days (PND 3 to PND 9) (FIG. 9b)) | total protein normalized Smn level, muscle (Smn protein [2]; QD IP for 7 days (PND 3 to PND 9) (FIG. 9c))
1 | CN1CCN(c2ccc3cc(-c4nc5c(Cl)cccc5s4)c(=O)oc3n2)CC1 [Cpd 5, 3-(4-chloro-1,3-benzothiazol-2-yl)-7-(4-methylpiperazin-1-yl)-2H-pyrano[2,3-b]pyridin-2-one] | increased | increased | increased |  |  | 
2 | Cc1ccc2nc(-c3cc4ccc(N5CCN(C)CC5)nc4oc3=O)cn2c1 [Cpd 27, 3-(6-methylimidazo[1,2-a]pyridin-2-yl)-7-(4-methylpiperazin-1-yl)-2H-pyrano[2,3-b]pyridin-2-one] |  |  |  | dose dependently increased | dose dependently increased | dose dependently increased

From US9371336B2, “Compounds for treating spinal muscular atrophy” (PTC Therapeutics Inc., priority 2012, dated 2016)
